Experimental data as given in US7932262B2 (Novartis AG, priority 2006, dated 2011).
Read-outs that look alike come from different tables or passages of the source.

Legend:
[1] = system: PC-3 cells; assay: Cell Proliferation Assay (Cell Titer Glo), PC-3 cell line; format: cell-based; conditions: Homo sapiens
How it was run: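 PC-3 cells, 1000 cells/well, left to adhere 3-5 h, then exposed for 3 days at 37° C to compounds as 1:3 serial dilutions from 500× DMSO stocks diluted in growth medium. Medium then replaced with fresh medium and viability read by Cell Titer Glo luminescence.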

[2] = target: T1, PDK1 kinase (Homo sapiens, UniProt O15530); assay: PDK1 Kinase Alpha Screen Assay; format: biochemical; conditions: read-out: PDK1 IC50
T1 sequence (O15530 1-556): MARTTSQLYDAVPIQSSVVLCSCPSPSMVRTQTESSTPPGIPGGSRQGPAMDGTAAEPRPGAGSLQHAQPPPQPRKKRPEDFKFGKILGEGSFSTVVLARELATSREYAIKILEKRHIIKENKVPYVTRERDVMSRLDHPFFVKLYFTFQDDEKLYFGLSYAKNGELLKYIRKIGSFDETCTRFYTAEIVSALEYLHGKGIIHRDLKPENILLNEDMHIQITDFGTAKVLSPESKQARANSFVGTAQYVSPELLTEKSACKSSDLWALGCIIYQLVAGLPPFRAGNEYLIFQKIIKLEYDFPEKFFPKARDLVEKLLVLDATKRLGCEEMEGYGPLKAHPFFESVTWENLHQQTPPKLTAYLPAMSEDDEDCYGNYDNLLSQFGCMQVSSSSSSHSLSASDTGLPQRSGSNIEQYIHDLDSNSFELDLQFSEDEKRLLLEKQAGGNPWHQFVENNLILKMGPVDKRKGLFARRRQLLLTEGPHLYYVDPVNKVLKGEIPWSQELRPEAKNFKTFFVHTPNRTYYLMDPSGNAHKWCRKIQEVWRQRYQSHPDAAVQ
How it was run: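 Compound in DMSO added to PDK1-4 peptide; PDK1/ATP mix starts reaction (final 50 nM peptide, 10 uM ATP). Runs 3-18 hours, stopped with 90 mM EDTA buffer. Antibody/bead mix added, developed overnight at room temperature, then AlphaScreen signal read.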

[3] = system: A2780 cells; assay: Cell Proliferation Assay (Cell Titer Glo), A2780; format: cell-based; conditions: Homo sapiens, read-out: CPEC50 A2780
How it was run: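 Cells seeded at 1000/well, allowed to adhere 3-5 h, then exposed to DMSO-dissolved compounds for 3 days at 37° C., 5% CO2. Medium replaced before Cell Titer Glo addition; luminescence read after 10 min.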

[4] = PC-3, Cell Proliferation Assay, PC3, read-out: CPEC50 PC3
[5] = Cell Proliferation Assay, A2780
[6] = cell proliferation, A2780 cells

| IC50 [2] [µM] | IC50 ([2]; PDK1 Kinase Alpha Screen Assay) [µM] | EC50 [3, 6] [µM] | EC50 ([3]; A2780 cells) [µM] | SMILES | further results |
| --- | --- | --- | --- | --- | --- |
| < 5 |  |  |  | CC(C)N1CCC(Oc2ccc3cnc(Nc4ccc(S(=O)(=O)N5CCOCC5)cc4)nc3c2)CC1 [Compound 54, [7-(1-Isopropyl-piperidin-4-yloxy)-quinazolin-2-yl]-[4-(morpholine-4-sulfonyl)-phenyl]-amine] | EC50 ([1]; PC-3, 72 h, PC-3 cells, 3 days incubation, read-out: CP EC50 PC3): < 5 µM; EC50 ([3]; 72 h, A2780 cells, 3 days incubation): < 5 µM |
|  | < 5 |  |  | Cc1ccc(OC2CCNCC2)c2nc(Nc3ccc(C(=O)NC4CC4)cc3)ncc12 [Compound 364, N-cyclopropyl-4-(5-methyl-8-(piperidin-4-yloxy)quinazolin-2-ylamino)benzamide] | EC50 [1, 4]: < 5 µM; EC50 [3, 5]: < 5 µM |
|  | < 5 |  |  | NS(=O)(=O)c1ccc(Nc2ncc3cccc(Oc4ccccc4)c3n2)cc1 [Compound 405, 4-(8-phenoxyquinazolin-2-ylamino)benzenesulfonamide] | EC50 [1, 4]: < 5 µM; EC50 [3, 5]: < 5 µM |
|  | < 5 |  |  | NS(=O)(=O)c1ccc(Nc2ncc3cccc(OCC4CCNCC4)c3n2)cc1 [Compound 509, 4-(8-(piperidin-4-ylmethoxy)quinazolin-2-ylamino)benzenesulfonamide] | EC50 [1, 4]: < 5 µM; EC50 [3, 5]: < 5 µM |
|  | < 5 |  |  | CC(C)Oc1cccc2cnc(Nc3ccc(S(N)(=O)=O)cc3)nc12 [Compound 511, 4-(8-isopropoxyquinazolin-2-ylamino)benzenesulfonamide] | EC50 [1, 4]: < 5 µM; EC50 [3, 5]: < 5 µM |
|  | < 5 |  |  | NS(=O)(=O)c1ccc(Nc2ncc3cccc(OC4CCCC4)c3n2)cc1 [Compound 512, 4-(8-(cyclopentyloxy)quinazolin-2-ylamino)benzenesulfonamide] | EC50 [1, 4]: < 5 µM; EC50 [3, 5]: < 5 µM |
|  | < 5 |  |  | CC(C)N1CCC(COc2cccc3cnc(Nc4ccc(S(N)(=O)=O)cc4)nc23)CC1 [Compound 519, 4-(8-((1-isopropylpiperidin-4-yl)methoxy)quinazolin-2-ylamino)benzenesulfonamide] | EC50 [1, 4]: < 5 µM; EC50 [3, 5]: < 5 µM |
|  |  |  |  | CC(C)Oc1cccc2cnc(Nc3ccc(C(N)=O)cn3)nc12 [Compound 520, 6-(8-isopropoxyquinazolin-2-ylamino)nicotinamide] | EC50 [1, 4]: < 5 µM; EC50 [3, 5]: 5 to 10 µM |
|  |  |  |  | CC(C)Oc1cccc2cnc(Nc3ccccn3)nc12 [Compound 521, 8-isopropoxy-N-(pyridin-2-yl)quinazolin-2-amine] | EC50 [1, 4]: < 5 µM; EC50 [3, 5]: 5 to 10 µM |
|  | < 5 | < 5 |  | CC(=O)NCCNc1ccc(-c2cc(F)cc3cnc(Nc4ccc(S(N)(=O)=O)cc4)nc23)cn1 [Compound 891, N-(2-(5-(6-fluoro-2-(4-sulfamoylphenylamino)quinazolin-8-yl)pyridin-2-ylamino)ethyl)acetamide] |  |
|  | < 5 | 5 to 10 |  | NS(=O)(=O)c1ccc(Nc2ncc3cccc(Nc4cccnc4)c3n2)cc1 [Compound 895, 4-(8-(pyridin-3-ylamino)quinazolin-2-ylamino)benzenesulfonamide] |  |
|  | < 5 | < 5 |  | NS(=O)(=O)c1ccc(Nc2ncc3cccc(CN4CCNC(=O)C4)c3n2)cc1 [Compound 896, 4-(8-((3-oxopiperazin-1-yl)methyl)quinazolin-2-ylamino)benzenesulfonamide] |  |
|  | < 5 | < 5 |  | CC(C)NCc1cccc2cnc(Nc3ccc(S(N)(=O)=O)cc3)nc12 [Compound 897, 4-(8-((isopropylamino)methyl)quinazolin-2-ylamino)benzenesulfonamide] |  |
|  | < 5 | < 5 |  | Cn1cc(-c2ccc3cnc(Nc4ccc(S(N)(=O)=O)cc4)nc3c2-c2cnn(C)c2)cn1 [Compound 898, 4-(7,8-bis(1-methyl-1H-pyrazol-4-yl)quinazolin-2-ylamino)benzenesulfonamide] |  |
|  | < 5 | < 5 |  | NS(=O)(=O)c1ccc(Nc2ncc3ccc(-c4cccnc4)c(-c4cccnc4)c3n2)cc1 [Compound 899, 4-(7,8-di(pyridin-3-yl)quinazolin-2-ylamino)benzenesulfonamide] |  |
|  | < 5 | 5 to 10 |  | Nc1ccc(-c2ccc3cnc(Nc4ccc(S(N)(=O)=O)cc4)nc3c2-c2ccc(N)nc2)cn1 [Compound 900, 4-(7,8-bis(6-aminopyridin-3-yl)quinazolin-2-ylamino)benzenesulfonamide] |  |
|  | < 5 | < 5 |  | NS(=O)(=O)c1ccc(Nc2ncc3cccc(CNCc4ccccc4)c3n2)cc1 [Compound 901, 4-(8-((benzylamino)methyl)quinazolin-2-ylamino)benzenesulfonamide] |  |
|  | < 5 | < 5 |  | NS(=O)(=O)c1ccc(Nc2ncc3cccc(CN4CCCC4)c3n2)cc1 [Compound 903, 4-(8-(pyrrolidin-1-ylmethyl)quinazolin-2-ylamino)benzenesulfonamide] |  |
|  | < 5 | < 5 |  | NS(=O)(=O)c1ccc(Nc2ncc3ccc(-c4ccc(F)nc4)c(-c4ccc(F)nc4)c3n2)cc1 [Compound 912, 4-(7,8-bis(6-fluoropyridin-3-yl)quinazolin-2-ylamino)benzenesulfonamide] |  |
| < 5 |  |  | < 5 | CCN(CC)Cc1cccc2cnc(Nc3ccc(S(N)(=O)=O)cc3)nc12 [Compound 916, 4-(8-((diethylamino)methyl)quinazolin-2-ylamino)benzenesulfonamide] |  |
| < 5 |  |  | < 5 | NS(=O)(=O)c1ccc(Nc2ncc3cccc(CNCc4cccnc4)c3n2)cc1 [Compound 917, 4-(8-((pyridin-3-ylmethylamino)methyl)quinazolin-2-ylamino)benzenesulfonamide] |  |
| < 5 |  |  | 5 to 10 | NS(=O)(=O)c1ccc(Nc2ncc3cccc(CNCCc4cnc[nH]4)c3n2)cc1 [Compound 918, 4-(8-((2-(1H-imidazol-5-yl)ethylamino)methyl)quinazolin-2-ylamino)benzenesulfonamide] |  |
| < 5 |  |  | 5 to 10 | NC(=O)C1CCN(Cc2cccc3cnc(Nc4ccc(S(N)(=O)=O)cc4)nc23)CC1 [Compound 919, 1-((2-(4-sulfamoylphenylamino)quinazolin-8-yl)methyl)piperidine-4-carboxamide] |  |
| < 5 |  |  | < 5 | NS(=O)(=O)c1ccc(Nc2ncc3cccc(CNC4CCOCC4)c3n2)cc1 [Compound 920] |  |
| < 5 |  |  | < 5 | NS(=O)(=O)c1ccc(Nc2ncc3cccc(CNC4CCCCC4)c3n2)cc1 [Compound 921, 4-(8-((cyclohexylamino)methyl)quinazolin-2-ylamino)benzenesulfonamide] |  |
| < 5 |  |  | < 5 | NS(=O)(=O)c1ccc(Nc2ncc3cccc(CNCC4CCCO4)c3n2)cc1 (stereo not drawn) [Compound 922, 4-(8-(((tetrahydrofuran-2-yl)methylamino)methyl)quinazolin-2-ylamino)benzenesulfonamide] |  |
| < 5 |  |  | < 5 | NS(=O)(=O)c1ccc(Nc2ncc3cccc(CN4CCc5ccccc5C4)c3n2)cc1 [Compound 923, 4-(8-((3,4-dihydroisoquinolin-2(1H)-yl)methyl)quinazolin-2-ylamino)benzenesulfonamide] |  |
| < 5 |  |  | < 5 | CC(=O)N1CCN(Cc2cccc3cnc(Nc4ccc(S(N)(=O)=O)cc4)nc23)CC1 [Compound 924, 4-(8-((4-acetylpiperazin-1-yl)methyl)quinazolin-2-ylamino)benzenesulfonamide] |  |
